Experimental data published in patent US8962606B2, “Substituted benzosulphonamides” (Bayer Intellectual Property GmbH, priority 2009, dated 2015).

Columns and labels:
[1] = system: HCT116 cells [human colorectal cell line]; test: HCT116 Cell Titer Glo (CTG) Proliferation Assay [Assay 1]; format: cell-based; conditions: HCT-116, 72 hours incubation
Description: Cell Titer Glo Proliferation Assay
The adherent tumor cell proliferation assay used to test the compounds of the present invention involves a readout called Cell Titre-Glo developed by Promega (Cunningham, B A “A Growing Issue: Cell Proliferation Assays. Modern kits ease quantification of cell growth” The Scientist 2001, 15(13), 26, and Crouch, S P et al., “The use of ATP bioluminescence as a measure of cell proliferation and cytotoxicity” Journal of Immunological Methods 1993, 160, 8 1-88).
Assay 1: HCT116 Cell Titer Glo (CTG) Proliferation Assay:
(§1) HCT116 cells [human colorectal cell line, expressing […]] were plated at a density of 3000 cells/well in 96 well black-clear bottom tissue culture plates (Costar 3603 black/clear bottom) in 100 μl/well DMEM medium (DMEM/Ham's F12) with 10% Fetal Bovine Serum (FBS) and stable Glutamine incubated at 37° C. Sister wells were plated in separate plate for time zero determination. All plates were incubated overnight at 37° C. Take down time zero plate: 100 μl/well CTG solution (Promega Cell Titer Glo solution) were added to time zero wells in sister plate; the plates were mixed for 2 min on orbital shaker to ensure cell lysis, incubated for 10 minutes, luminescence was read on VICTOR3 (Perkin Elmer). Twenty-four hours after cell seeding, test compounds were diluted in 50 μl medium and were added at a final concentration range from as high 10 μM to as low […] depending on the activities of the tested compounds in serial dilutions at a final DMSO concentration of 0.4%. Cells were incubated for 72 hours at 37° C. after addition of the test compound. Then, using a Promega Cell Titer Glo Luminescent® assay kit, 100 μl microliter lysis buffer containing of the enzyme luciferase and its substrate, luciferin mixture, were added to each well and incubated for 10 min at room temperature in the dark to stabilize luminescence signal. The samples were read on VICTOR3 (Perkin Elmer) using Luminescence protocol. The percentage change in cell growth was calculated by normalizing the measurements to the extinctions of the zero point plate (=0%) and the extinction of the untreated (0 μM) cells (=100%). The IC50 values were determined by means of a 4-parameter fit using the company's own software.

[2] = system: A375 cells [human melanoma cell line, expressing mutant BRAF V600E]; test: A375 Crystal Violet (CV) Proliferation Assay [Assay 5]; format: cell-based; conditions: A-375, 96 h, crystal violet staining, 4 days incubation
Method: Assay 5: A375 Crystal Violet (CV) Proliferation Assay:
Cell proliferation for A375 cells [human melanoma cell line, expressing mutant BRAF V600E] was measured by crystal violet (CV) staining: Cultivated human A375 cells were plated out in a density of 1500 cells/measurement point in 200 μl of growth medium (DMEM/HAMS F12 with 10% FBS and 2 mM Glutamine) in a 96-well multititer plate. After 24 hours, the cells from a plate (zero plate) were stained with crystal violet (see below), while the medium in the other plates was replaced by fresh culture medium (200 μl) to which the test substances had been added in various concentrations (0 μM, and in the range 0.3 nM-30 μM; the final concentration of the solvent dimethyl sulphoxide was 0.5%). The cells were incubated in the presence of the test substances for 4 days. The cell proliferation was determined by staining the cells with crystal violet: the cells were fixed by adding 20 μl/measurement point of an 11% glutaraldehyde solution at room temperature for 15 min. After the fixed cells had been washed three times with water, the plates were dried at room temperature. The cells were stained by adding 100 μl/measurement point of a 0.1% crystal violet solution (pH adjusted to pH 3 by adding acetic acid). After the stained cells had been washed three times with water, the plates were dried at room temperature. The dye was dissolved by adding 100 μl/measurement point of a 10% acetic acid solution, and the extinction was determined by photometry at a wavelength of 595 nm. The percentage change in cell growth was calculated by normalizing the measurements to the extinctions of the zero point plate (=0%) and the extinction of the untreated (0 μM) cells (=100%). The IC50 values were determined by means of a 4-parameter fit using the company's own software.

[3] = system: A549 cells [human non small cell lung cancer cell line, expressing mutant K-Ras G12S]; test: A549 Cell Titer Glo (CTG) Proliferation Assay [Assay 2]; format: cell-based; conditions: 72 hours incubation
Method: as §1
Assay 2: A549 Cell Titer Glo (CTG) Proliferation Assay:
A549 cells [human non small cell lung cancer cell line, expressing mutant K-Ras G12S] were seeded at a density of 2000 cells/well in 96 well black-clear bottom tissue culture plates (Costar 3603 black/clear bottom) in 100 μl/well DMEM medium (DMEM/Ham's F12) with 10% Fetal Bovine Serum (FBS) and stable Glutamine incubated at 37° C. Cell Titer Glo proliferation assays for A549 cells were performed with the same protocol as described afore for HCT116 cells.

colon cancer = conditions: oral treatment, mouse models, background [18]; cited from earlier work
MEK1/2 = conditions: second-generation MEK1/2 inhibitor, background [17]; cited from earlier work

## CCS(=O)(=O)Nc1cccc(Oc2cc(F)cc(Nc3ccc(I)cc3F)c2NS(=O)(=O)C2CC2)c1 [Example 1, N-(2-{3-[(ethylsulfonyl)amino]phenoxy}-4-fluoro-6-[(2-fluoro-4-iodophenyl)amino]phenyl)cyclopropanesulfonamide]
[1]
  IC50: 26.5 nM
[2]
  IC50: 0.351 nM
[3]
  IC50: 18.1 nM

## CCS(=O)(=O)Nc1cccc(Oc2cc(F)cc(Nc3ccc(I)cc3F)c2NS(C)(=O)=O)c1 [Example 2, N-(3-{5-fluoro-3-[(2-fluoro-4-iodophenyl)amino]-2-[(methylsulfonyl)-amino]phenoxy}-phenyl)ethane-sulfonamide]
[1]
  IC50: 28.3 nM
[2]
  IC50: 0.899 nM
[3]
  IC50: 39.4 nM

## CCS(=O)(=O)Nc1cccc(Oc2cc(F)cc(Nc3ccc(I)cc3F)c2NS(=O)(=O)CC)c1 [Example 3, N-(3-{2-[(ethylsulfonyl)amino]-5-fluoro-3-[(2-fluoro-4-iodophenyl)amino]-phenoxy}phenyl)-ethanesulfonamide]
[1]
  IC50: 31.7 nM
[2]
  IC50: 1.56 nM
[3]
  IC50: 73.6 nM

## CCS(=O)(=O)Nc1cccc(Oc2cc(F)cc(Nc3ccc(I)cc3F)c2NS(=O)(=O)C(C)C)c1 [Example 4, N-(2-{3-[(ethylsulfonyl)amino]phenoxy}-4-fluoro-6-[(2-fluoro-4-iodophenyl)amino]-phenyl)propane-2-sulfonamide]
[1]
  IC50: 53.7 nM
[2]
  IC50: 15.6 nM
[3]
  IC50: 92.5 nM

## CCS(=O)(=O)Nc1cccc(Oc2cc(F)cc(Nc3ccc(I)cc3F)c2NS(N)(=O)=O)c1 [Example 6, N-(3-{5-fluoro-3-[(2-fluoro-4-iodophenyl)amino]-2-(sulfamoylamino)phenoxy}phenyl)ethanesulfonamide]
[1]
  IC50: 100 nM
[2]
  IC50: 2.44 nM
[3]
  IC50: 68.9 nM

## CCS(=O)(=O)Nc1cccc(Oc2cc(F)cc(Nc3ccc(I)cc3F)c2NS(=O)(=O)C2CC2)c1C [Example 7, N-(2-{3-[(ethylsulfonyl)amino]-2-methylphenoxy}-4-fluoro-6-[(2-fluoro-4-iodophenyl)amino]phenyl)cyclopropanesulfonamide]
[1]
  IC50: 3 nM
[2]
  IC50: 0.171 nM

## CCS(=O)(=O)Nc1cccc(Oc2cc(F)cc(Nc3ccc(I)cc3F)c2NS(N)(=O)=O)c1C [Example 8, N-(3-{5-fluoro-3-[(2-fluoro-4-iodophenyl)amino]-2-(sulfamoylamino)phenoxy}-2-methylphenyl)ethanesulfonamide]
[1]
  IC50: 10 nM
[2]
  IC50: 0.68 nM
[3]
  IC50: 4.78 nM

## C#Cc1ccc(Nc2cc(F)cc(Oc3cccc(NS(=O)(=O)CC)c3)c2NS(=O)(=O)C2CC2)c(F)c1 [Example 9, N-(2-{3-[(ethylsulfonyl)amino]phenoxy}-6-[(4-ethynyl-2-fluorophenyl)amino]-4-fluorophenyl)cyclopropanesulfonamide]
[1]
  IC50: 59.6 nM
[2]
  IC50: 2.39 nM
[3]
  IC50: 137 nM

## C#Cc1ccc(Nc2cc(F)cc(Oc3cccc(NS(=O)(=O)CC)c3)c2NS(N)(=O)=O)c(F)c1 [Example 10, N-(3-{3-[(4-ethynyl-2-fluorophenyl)amino]-5-fluoro-2-(sulfamoylamino)phenoxy}phenyl)ethanesulfonamide]
[1]
  IC50: 70 nM
[2]
  IC50: 7.93 nM
[3]
  IC50: 86.7 nM

## NS(=O)(=O)Nc1cccc(Oc2cc(F)cc(Nc3ccc(I)cc3F)c2NS(=O)(=O)C2CC2)c1 [Example 11, N-{4-fluoro-2-[(2-fluoro-4-iodophenyl)amino]-6-[3-(sulfamoylamino)phenoxy]phenyl}cyclopropanesulfonamide]
[1]
  IC50: 7.04 nM
[3]
  IC50: 6.65 nM

## CC(C)S(=O)(=O)Nc1cccc(Oc2cc(F)cc(Nc3ccc(I)cc3F)c2NS(=O)(=O)C2CC2)c1 [Example 12, N-(4-fluoro-2-[(2-fluoro-4-iodophenyl)amino]-6-{3-[(isopropylsulfonyl)amino]phenoxy}phenyl)cyclopropanesulfonamide]
[1]
  IC50: 32 nM
[2]
  IC50: 0.729 nM
[3]
  IC50: 36.1 nM

## NS(=O)(=O)Nc1cc(Oc2cc(F)cc(Nc3ccc(I)cc3F)c2NS(=O)(=O)C2CC2)ccc1F [Example 14, N-{4-fluoro-2-[(2-fluoro-4-iodophenyl)amino]-6-[4-fluoro-3-(sulfamoylamino)phenoxy]phenyl}cyclopropanesulfonamide]
[2]
  IC50: 18.6 nM

## O=C(NOCC1CC1)c1ccc(F)c(F)c1Nc1ccc(I)cc1Cl [PD184352]
Colon cancer
  colon cancer growth in vivo: inhibit colon cancer growth in vivo
MEK1/2
  IC50: low nanomolar range

## NC(=O)c1c(Nc2ccc(I)cc2F)cc(F)cc1Oc1cccc(NS(N)(=O)=O)c1 [reference compound]
[1]
  IC50: 208 nM
[2]
  IC50: 4.53 nM
[3]
  IC50: 319 nM
